Measurements reported in patent publication US20260209183A1, “HETEROCYCLIC COMPOUNDS AND USES THEREOF” (CERTA THERAPEUTICS PTY LTD, priority 2022, published 2026).

The compounds below were run against T1, human GPR68 (Homo sapiens, UniProt Q15743) (assay: GPR68 cAMP GloSensor assay). Conditions: HEK293T cells transiently transfected with GPR68 and GloSensor-22F cAMP reporter; activation at pH 6.0; 10 μM top, 3-fold, 10 points, in duplicate.
T1 construct: host or cells: HEK293T
Assay type: cell-based
From the text: The assay was developed to provide a quick screen assay to determine the potency and EC50s/IC50s of compounds against the GPR68 receptor with transient transfection cell.
GPR68 senses extracellular pH.
To determine the compound activity in GPR68 inhibition, an GPR68 dependent cAMP assay was developed and validated. Principle of this method: Expression of GPR68 in HEK293T cells by transient transfection of a GPR68-expression vector and a cAMP-sensing reporter vector (GloSensor, Promega). The transfected cells as a pool will be re-plated uniformly in assay plates, to minimize the in-experiment variation. The GPR68 receptor signal will be measured via Gs to CAMP increase as indicated by the Luc activation under basal (pH8.4 or pH7.4) or activated (pH6.5 or pH6.0) states.
• GloSensor™ CAMP Reagent (Promega, Cat #E1291) • human GPR68 NM_001177676.2_pcDNA3.1 (+)(Genscript) • The GloSensor™-22F CAMP Reporter Vector (Promega, Cat #E2301) • DMEM (Gibco, Cat #11995065) • FBS, Qualified, New Zealand origin (Gibco, Cat #10091148) • Penicillin-Streptomycin (Gibco, Cat #15140122) • 0.25% Trypsin-EDTA (Gibco, Cat #25200056) • PBS (Gibco, Cat #10010049) • 1x HBSS (Gibco, Cat #14175079) • HEPES (Gibco, Cat #15630080) • MES (Sigma, Cat #M2933-25G) • TAPS (Sigma, Cat #T5316-25G) • NaOH (Sigma, Cat #221465) • BSA (Sigma, Cat #B2064-50G) • Opti-MEM (Gibco, Cat #31985070) • DMSO (Sigma, Cat #D5879-1L) • FuGene HD Transfection Reagent (Promega, Cat #E2311)
• 1) Detached cells with 0.25% Trypsin when the cell confluence was about 80%. • 2)Resuspended the detached cells in 3 ml fresh cell culture medium. Counted the cell number and diluted the cells to proper density. • 3) Seeded 1.5∧10∧6 cells into 6-well plate (Cat. #3516) in 2 ml per well contained the need to transfection well so that the cells were 80-85% confluent at the time of transfection. • 4) Incubated the cells at 37° C. in a CO2 incubator for 6 hours.
• 5) Gently aspirated off the DMEM medium. Then added the Opti-MEM® Medium without serum into 6-well plate. • 6) Added 2.5 μg GPR68 and 2.5 μg GloSensor-22F in 1:1 ratio and 12 μl FuGeneHD into 120 μl of Opti-MEM® Medium without serum. Mixed gently and incubated for 15 min at room temperature. • 7) After the 15-minute incubation, added 137 μl of DNA-Transfection Reagent complexes to each well containing cells and medium. Mixed gently by rocking the plate back and forth. • 8) Incubated the cells at 37° C. in a co2 incubator for 19 h until they were ready to assay for transgene expression.
Seeded 40000 cells/well, 100 μl/well in 96-well plate (Cat. #3610) with complete DMEM medium; incubated overnight.
• 1) Compounds were solubilized in 100% DMSO to a concentration of 50 mM. • 2) Prepared compound DMSO solutions in 384 LDV echo plate: top concentration was 10 mM, 3-fold, 10 dose-response, so intermediate concentrations were created by serially diluting by […] beginning from the 10000 μM. 5 μL tested intermediate compounds+10 μl DMSO solutions were transferred to 384 LDV echo plate. Centrifuged the echo plate at 1000 rpm for 30s before Echo procedure. Compounds were transferred 180 nL volume by Echo550 to a 96-assay plate (corning, Cat #3599), to make compound 10 concentration points in duplicate (the final top concentration was 10 μM, 3-fold, 10 dose-response, in duplicate). Final DMSO concentration is 0.1%. • 3) For the Low control wells and High control wells, 180 nL DMSO were transferred by ECHO. • 4) Layout of assay plate 180 nL/well of compounds in 100% DMSO 180 nL/well DMSO in Low control wells and High control wells was as shown below. Compounds were prepared into assay plate at […] in 100% DMSO, the assay volume was […], and final DMSO concentration was 0.1%.
• 1)Removed culture medium, added 100 μL/well GloSensor (50×) to cells, then incubated for 2 h at room temperature.
• 2) Pre-read Luminescence at −5 min for background after 2 h incubation.

T1 sequence (Q15743 whole entry): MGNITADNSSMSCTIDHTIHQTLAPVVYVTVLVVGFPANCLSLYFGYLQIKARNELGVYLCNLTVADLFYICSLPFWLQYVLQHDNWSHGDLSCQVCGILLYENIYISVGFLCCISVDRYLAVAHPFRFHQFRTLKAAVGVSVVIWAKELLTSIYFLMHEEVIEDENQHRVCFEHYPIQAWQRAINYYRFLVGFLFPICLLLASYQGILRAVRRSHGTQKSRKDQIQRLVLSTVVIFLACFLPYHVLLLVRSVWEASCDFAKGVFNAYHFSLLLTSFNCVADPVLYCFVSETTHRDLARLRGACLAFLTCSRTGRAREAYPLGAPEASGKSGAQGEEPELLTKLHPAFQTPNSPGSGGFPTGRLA

SMILES | IC50 [µM]
O=C(/C=C/c1ccc2c(cnn2CC2CC2)c1)Nc1sccc1C(=O)O [Compound 1] | 0.593
O=C(/C=C/c1ccc2c(cnn2CC2CC2)c1)Nc1ccccc1F [Compound 2, (E)-3-(1-(cyclopropylmethyl)-1H-indazol-5-yl)-N-(2-fluorophenyl)acrylamide] | 0.861
O=C(/C=C/c1cc2cnn(CC3CC3)c2cc1F)Nc1ccccc1C(=O)O [Compound 4, (E)-2-(3-(1-(cyclopropylmethyl)-6-fluoro-1H-indazol-5-yl)acrylamido)benzoic acid] | 1.29
O=C(/C=C/c1ccc2c(cnn2CC2CC2)c1)Nc1ccccn1 [Compound 5, (E)-3-(1-(cyclopropylmethyl)-1H-indazol-5-yl)-N-(pyridin-2-yl)acrylamide] | 1.41
O=C(/C=C/c1ccc2c(cnn2CC2CC2)c1)Nc1ccccc1C(=O)O [Compound 6, (E)-2-(3-(1-(cyclopropylmethyl)-1H-indazol-5-yl)acrylamido)benzoic acid] | 1.68
O=C(/C=C/c1ccc2c(cnn2CC2CC2)c1)Nc1cccnc1C(=O)O [Compound 7, (E)-3-(3-(1-(cyclopropylmethyl)-1H-indazol-5-yl)acrylamido)picolinic acid] | 2.02
O=C(/C=C/c1ccc2c(cnn2CC2CC2)c1)Nc1ccccc1 [Compound 8, (E)-3-(1-(cyclopropylmethyl)-1H-indazol-5-yl)-N-phenylacrylamide] | 2.08
Cn1ncc2cc(/C=C/C(=O)Nc3ccccn3)ccc21 [Compound 9, (E)-3-(1-methyl-1H-indazol-5-yl)-N-(pyridin-2-yl)acrylamide] | 3.46
O=C(/C=C/c1ccc2c(cnn2CC2CC2)c1)Nc1cccc(C(=O)O)n1 [Compound 10, (E)-6-(3-(1-(cyclopropylmethyl)-1H-indazol-5-yl)acrylamido)picolinic acid] | 3.82
Cn1ncc2cc(/C=C/C(=O)Nc3ccccc3)ccc21 [Compound 11, (E)-3-(1-methyl-1H-indazol-5-yl)-N-phenylacrylamide] | 3.83
O=C(/C=C/c1ccc2c(cnn2CC2CC2)c1)Nc1ccccc1NS(=O)(=O)CC(F)(F)F [Compound 12, (E)-3-(1-(cyclopropylmethyl)-1H-indazol-5-yl)-N-(2-((2,2,2-trifluoroethyl)sulfonamido)phenyl)acrylamide] | 4.49
O=C(/C=C/c1ccc2c(cnn2CC2CC2)c1)Nc1ccccc1-c1noc(=O)[nH]1 [Compound 13, (E)-3-(1-(cyclopropylmethyl)-1H-indazol-5-yl)-N-(2-(5-oxo-4,5-dihydro-1,2,4-oxadiazol-3-yl)phenyl)acrylamide] | 4.81
O=C(/C=C/c1ccc2c(cnn2CC2CC2)c1)Nc1ccccc1-c1n[nH]c(=O)o1 [Compound 14, (E)-3-(1-(cyclopropylmethyl)-1H-indazol-5-yl)-N-(2-(5-oxo-4,5-dihydro-1,3,4-oxadiazol-2-yl)phenyl)acrylamide] | 5.72
O=C(O)c1nn(C(=O)/C=C/c2ccc3c(cnn3CC3CC3)c2)c2ccccc12 [Compound 15] | 6.68
O=C(/C=C/c1ccc2c(cnn2CC2CC2)c1)Nc1ccccc1-c1nnn[nH]1 [Compound 16, (E)-N-(2-(1H-tetrazol-5-yl)phenyl)-3-(1-(cyclopropylmethyl)-1H-indazol-5-yl)acrylamide] | 6.9
CN(C)S(=O)(=O)NC(=O)c1ccccc1NC(=O)/C=C/c1ccc2c(cnn2CC2CC2)c1 [Compound 17] | 7.02
NS(=O)(=O)c1ccccc1NC(=O)/C=C/c1ccc2c(cnn2CC2CC2)c1 [Compound 18, (E)-3-(1-(cyclopropylmethyl)-1H-indazol-5-yl)-N-(2-sulfamoylphenyl)acrylamide] | 7.39
O=C(/C=C/c1ccc2c(cnn2CC2CC2)c1)NC1C2CC3CC(C2)CC1C3 (centres unmarked) [Compound 19] | 9.7
O=C(/C=C/c1ccc2c(cnn2CC2CC2)c1)Nc1ncccc1F [Compound 23] | 17
O=C(/C=C/c1ccc2c(cnn2CC2CC2)c1)Nc1ccc(F)cn1 [Compound 25] | 14.9
O=C(/C=C/c1ccc2c(cnn2CC2CC2)c1)Nc1c(F)cccc1C(=O)O [Compound 36] | 11.5
O=C(/C=C/c1ccc2c(cnn2CC2CC2)c1)Nc1ccc(F)cc1C(=O)O [Compound 55] | 8.6
O=C(/C=C/c1ccc2c(cnn2CC2CC2)c1)Nc1cc(F)ccc1C(=O)O [Compound 56] | 3.52
